{
  "source": "patent US5302398A",
  "about": "“Gastroresistant pharmaceutical formulations for oral administration containing salts of bile acids” (Alfa Wassermann S.p.A., priority 1991, dated 1994)",
  "note": "Counter-ions that a name gives are not always drawn.",
  "data": [
    {"experiment": "pH of 1% (w/v) aqueous solution of the salt", "assay_type": "physicochemical", "conditions": "1% (w/v) in water", "description": "The sodium and potassium salts of the ursodeoxycholic acid, whose 1% (w/v) aqueous solutions show pH values respectively equal to 7.80 and 7.90, are prepared in a similar manner.\n20 Ml of a 0.5 M aqueous solution (10 mmoles) of 1-(2-hydroxyethyl)pyrrolidine are added under stirring to a suspension containing 3.92 g (10 mmoles) of ursodeoxycholic acid in 50 ml of water prolonging the stirring until complete solubilization. The obtained solution is then freeze-dried obtaining with quantitative yield a white powder corresponding to the salt in object.\nThe N-methyl-D-glucamine and L-arginine salts of the ursodeoxycholic acid, whose 1% (w/v) aqueous solutions show pH values respectively equal to 8.06 and 7.75, are prepared in a similar manner.\n10 Ml of a 1 M aqueous solution (10 mmoles) of choline bicarbonate are added under stirring to a suspension containing 3.92 g (10 mmoles) of ursodeoxycholic acid in 50 ml of water prolonging the stirring until complete solubilization.", "values": [
      {"smiles": "C[C@H](CCC(=O)O)[C@H]1CC[C@H]2[C@@H]3[C@@H](O)C[C@@H]4C[C@H](O)CC[C@]4(C)[C@H]3CC[C@]12C", "note": "[Example 1, LITHIUM SALT OF THE URSODEOXYCHOLIC ACID]", "pH value of a 1% (w/v) aqueous solution": 8.13},
      {"smiles": "C[C@H](CCC(=O)O)[C@H]1CC[C@H]2[C@@H]3[C@@H](O)C[C@@H]4C[C@H](O)CC[C@]4(C)[C@H]3CC[C@]12C", "note": "[Example 3, CHOLINE SALT OF THE URSODEOXYCHOLIC ACID]", "pH value of a 1% (w/v) aqueous solution": 7.40},
      {"smiles": "C[C@H](CCC(=O)O)[C@H]1CC[C@H]2[C@@H]3[C@@H](O)C[C@@H]4C[C@H](O)CC[C@]4(C)[C@H]3CC[C@]12C", "note": "[potassium salt of the ursodeoxycholic acid]", "pH value of a 1% (w/v) aqueous solution": 7.90},
      {"smiles": "C[C@H](CCC(=O)O)[C@H]1CC[C@H]2[C@@H]3[C@@H](O)C[C@@H]4C[C@H](O)CC[C@]4(C)[C@H]3CC[C@]12C", "note": "[sodium salt of the ursodeoxycholic acid]", "pH value of a 1% (w/v) aqueous solution": 7.80},
      {"smiles": "C[C@H](CCC(=O)O)[C@H]1CC[C@H]2[C@@H]3[C@@H](O)C[C@@H]4C[C@H](O)CC[C@]4(C)[C@H]3CC[C@]12C", "note": "[L-arginine salt of the ursodeoxycholic acid]", "pH value of a 1% (w/v) aqueous solution": 7.75},
      {"smiles": "C[C@H](CCC(=O)O)[C@H]1CC[C@H]2[C@@H]3[C@@H](O)C[C@@H]4C[C@H](O)CC[C@]4(C)[C@H]3CC[C@]12C", "note": "[N-methyl-D-glucamine salt of the ursodeoxycholic acid]", "pH value of a 1% (w/v) aqueous solution": 8.06},
      {"smiles": "C[C@H](CCC(=O)O)[C@H]1CC[C@H]2[C@@H]3[C@@H](O)C[C@@H]4C[C@H](O)CC[C@]4(C)[C@H]3CC[C@]12C", "note": "[Example 2, 1-(2-HYDROXYETHYL)PYRROLIDINE SALT OF THE URSODEOXYCHOLIC ACID]", "pH value of a 1% (w/v) aqueous solution": 7.90}
    ]},
    {"experiment": "not given", "conditions": "intestinal bacterial flora; pH lower than 8.4; cited from earlier work", "values": [
      {"smiles": "C[C@H](CCC(=O)O)[C@H]1CC[C@H]2[C@@H]3[C@@H](O)C[C@@H]4C[C@H](O)CC[C@]4(C)[C@H]3CC[C@]12C", "note": "[ursodeoxycholic acid]", "biotransformation of the unabsorbed portion": "undergoes a biotransformation to litocholic acid"}
    ]}
  ]
}
